From the supplement of paper PMC10307832

The cell lines below were run with CC1=C(C(=NN1)C)CC2=C(C3=C(S2)N(C(=O)N(C3=O)C)CC(C)C)C(=O)N4C[C@@H](CO4)O + Cc1nc(NC(=O)N2CCC[C@H]2C(N)=O)sc1-c1ccnc(C(C)(C)C(F)(F)F)c1 [Alpelisib] (partner 2 µM) (assay: relative viability (nuclei count vs DMSO), 5 days (fraction); higher = more cells survive). Details: first compound 0.0025 µM.
In short: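 Relative viability divides the nuclei count in treated wells by that in vehicle wells. Lung cancer cell lines were seeded in 1536-well plates, dosed by pin tool the next day, and fixed and stained after 5 days in one step with final 0.05% Triton X-100, 1% formaldehyde and 1 ug/ml Hoechst. Dosing was a single drug or a fixed anchor-drug dose plus five library-drug doses (not always all listed) in √10 steps, and values are medians of duplicate plates imaged at 4×.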

In order of falling relative viability:
1. NCI-H2009  1.31
2. CAL-12T  1.27
3. NCI-H2347  1.16
4. NCI-H647  1.16
5. NCI-H1915  1.09
6. NCI-H1651  1.07
7. NCI-H1395  1.04
8. 201T  1.04
9. A-427  1.02
10. HARA  1.01
11. HCC-827  1.01
12. LXF-289  1.01
13. NCI-H1437  0.993
14. EPLC-272H  0.99
15. BEN  0.976
16. HOP-62  0.959
17. NCI-H1355  0.937
18. NCI-H661  0.914
19. NCI-H2228  0.911
20. SK-LU-1  0.879
21. NCI-H441  0.83
22. NCI-H23  0.823
23. NCI-H1792  0.82
24. HCC-44  0.817
25. NCI-H3122  0.813
26. NCI-H322M  0.769
27. NCI-H2405  0.735
28. LOU-NH91  0.734
29. NCI-H460  0.721
30. NCI-H1734  0.692
31. LU99A  0.559
32. LCLC-97TM1  0.276

Same assay, conditions: first compound 0.007906 µM

In order of falling relative viability:
1. CAL-12T  1.3
2. NCI-H2009  1.23
3. A-427  1.21
4. HOP-62  1.15
5. NCI-H1915  1.11
6. NCI-H647  1.03
7. NCI-H1651  1.02
8. BEN  1.01
9. NCI-H2347  1.01
10. HCC-827  1.01
11. LXF-289  1.01
12. NCI-H1437  1
13. 201T  0.995
14. EPLC-272H  0.943
15. HARA  0.922
16. NCI-H1395  0.898
17. NCI-H1355  0.887
18. HCC-44  0.851
19. NCI-H3122  0.816
20. NCI-H661  0.803
21. NCI-H322M  0.793
22. NCI-H1734  0.771
23. NCI-H23  0.767
24. NCI-H2405  0.688
25. NCI-H2228  0.673
26. LOU-NH91  0.626
27. NCI-H1792  0.624
28. NCI-H441  0.602
29. LU99A  0.589
30. SK-LU-1  0.565
31. NCI-H460  0.493
32. LCLC-97TM1  0.206

Same assay, conditions: first compound 0.025 µM

In order of falling relative viability:
1. NCI-H647  1.19
2. NCI-H2009  1.14
3. NCI-H2347  1.11
4. NCI-H1915  1.1
5. A-427  1.08
6. NCI-H1395  1.06
7. LXF-289  1.03
8. CAL-12T  1.03
9. HOP-62  1.01
10. NCI-H2228  1.01
11. 201T  0.996
12. EPLC-272H  0.99
13. HCC-827  0.962
14. NCI-H1437  0.946
15. NCI-H1651  0.923
16. NCI-H1355  0.878
17. NCI-H322M  0.866
18. HARA  0.837
19. BEN  0.826
20. HCC-44  0.798
21. LOU-NH91  0.791
22. NCI-H3122  0.788
23. NCI-H1792  0.699
24. NCI-H1734  0.667
25. NCI-H23  0.666
26. NCI-H441  0.616
27. LU99A  0.581
28. NCI-H460  0.575
29. NCI-H661  0.559
30. SK-LU-1  0.537
31. LCLC-97TM1  0.257

Same assay, conditions: first compound 0.07906 µM

In order of falling relative viability:
1. NCI-H647  1.32
2. NCI-H2009  1.26
3. NCI-H1915  1.15
4. NCI-H441  1.06
5. CAL-12T  1.06
6. A-427  1.03
7. LXF-289  1.01
8. NCI-H1395  0.983
9. NCI-H1437  0.972
10. 201T  0.971
11. NCI-H2347  0.964
12. NCI-H1651  0.961
13. HCC-827  0.93
14. EPLC-272H  0.899
15. NCI-H1355  0.893
16. HOP-62  0.862
17. BEN  0.858
18. NCI-H322M  0.831
19. LOU-NH91  0.799
20. HCC-44  0.795
21. NCI-H3122  0.783
22. SK-LU-1  0.782
23. NCI-H2405  0.78
24. HARA  0.768
25. NCI-H1734  0.757
26. NCI-H2228  0.722
27. NCI-H661  0.654
28. NCI-H23  0.634
29. NCI-H1792  0.58
30. LU99A  0.568
31. NCI-H460  0.492
32. LCLC-97TM1  0.188

Same assay, conditions: first compound 0.25 µM

In order of rising relative viability:
1. LCLC-97TM1  0.228
2. NCI-H661  0.421
3. NCI-H1792  0.555
4. NCI-H460  0.571
5. SK-LU-1  0.582
6. LU99A  0.611
7. NCI-H2405  0.669
8. NCI-H1734  0.677
9. HOP-62  0.696
10. NCI-H3122  0.706
11. LOU-NH91  0.708
12. NCI-H1355  0.74
13. NCI-H322M  0.748
14. HCC-44  0.777
15. HARA  0.801
16. EPLC-272H  0.829
17. NCI-H23  0.892
18. NCI-H2228  0.9
19. NCI-H441  0.902
20. HCC-827  0.939
21. NCI-H1651  0.945
22. 201T  0.949
23. NCI-H2347  0.964
24. BEN  0.987
25. NCI-H1395  1.01
26. A-427  1.07
27. NCI-H1915  1.07
28. LXF-289  1.07
29. NCI-H2009  1.15
30. CAL-12T  1.58
31. NCI-H647  1.75
